Results: ChEMBL document CHEMBL4725308, “MK-5204: An orally active β-1,3-glucan synthesis inhibitor” (Bioorg Med Chem Lett, 2020)
In brackets after ≈: the same amount, converted by molar mass.

Experiments:
[1] = Inhibition of beta-1,3-glucan synthase in Candida albicans MY1055 microsomal membrane using UDP-[3H]-glucose as substrate incubated for 2 hrs in presence of UTP by radioactivity-based assay; assay type: cell membranes
Candida albicans [2] = assay: Antifungal activity against Candida albicans MY1055 assessed as fungal growth inhibition measured after 24 hrs by liquid microdilution method; assay type: functional
Candida albicans [3] = assay: Antifungal activity against Candida albicans MY1055 assessed as fungal growth inhibition measured after 24 hrs in presence of mouse serum by liquid microdilution method; assay type: functional
Aspergillus fumigatus = assay: Antifungal activity against Aspergillus fumigatus MF5668 assessed as fungal growth inhibition measured after 24 hrs by liquid microdilution method; assay type: functional; conditions: read-out: MEC
Candida albicans [4] = assay: Antifungal activity against Candida albicans MY1055 infected in DBA/2 mouse model assessed as log change in colony forming units in kidney at 25 mg/kg, po bid for 2 days and measured after 4 days by TOKA; assay type: functional; conditions: time 2 day
Candida albicans [5] = assay: Antifungal activity against Candida albicans MY1055 infected in DBA/2 mouse model assessed as log change in colony forming units in kidney at 6.5 mg/kg, po bid for 2 days and measured after 4 days by TOKA; assay type: functional; conditions: time 2 day
Candida albicans [6] = assay: Antifungal activity against Candida albicans MY1055 infected in DBA mouse model assessed as log change in colony forming units in kidney at 12.5 mg/kg, po bid for 2 days and measured after 4 days by TOKA; assay type: functional; conditions: time 2 day
[7] = Oral bioavailability in mouse; assay type: ADME, organism-based; conditions: in vivo

IC50 [1] [ng/mL]	MIC (Candida albicans [2]) [µg/mL]	MIC (Candida albicans [3]) [µg/mL]	bioavailability [7] [%]	SMILES	minimal effective concentration (Aspergillus fumigatus) [µg/mL]	Activity (Candida albicans [4]) [log CFU]	Activity (Candida albicans [5]) [log CFU]	Activity (Candida albicans [6]) [log CFU]
334	8 (≈ 12 µM)	> 32		CC(C)[C@@H](C)[C@@]1(C)CC[C@]2(C)[C@H]3CC[C@@H]4[C@@]5(COC[C@]4(C)[C@@H](OC[C@](C)(N)C(C)C)[C@H](n4cnc(C#N)n4)C5)C3=CC[C@@]2(C)[C@@H]1C(=O)O	4			
6	0.25 (≈ 0.348 µM)	8		CC(C)[C@@H](C)[C@@]1(C)CC[C@]2(C)[C@H]3CC[C@@H]4[C@@]5(COC[C@]4(C)[C@@H](OC[C@](C)(N)C(C)C)[C@H](n4ncnc4S(N)(=O)=O)C5)C3=CC[C@@]2(C)[C@@H]1C(=O)O	< 0.03	-0.7	-0.8	-0.8
8	0.125 (≈ 0.18 µM)	2		CC(C)[C@@H](C)[C@@]1(C)CC[C@]2(C)[C@H]3CC[C@@H]4[C@@]5(COC[C@]4(C)[C@@H](OCC4(N)CCOCC4)[C@H](n4ncnc4C(N)=O)C5)C3=CC[C@@]2(C)[C@@H]1C(=O)O	< 0.03			
5	0.5 (≈ 0.654 µM)	16		CC(C)[C@@H](C)[C@@]1(C)CC[C@]2(C)[C@H]3CC[C@@H]4[C@@]5(COC[C@]4(C)[C@@H](OC[C@](C)(N)C(C)C)[C@H](n4ncnc4I)C5)C3=CC[C@@]2(C)[C@@H]1C(=O)O	< 0.03			
8	0.25 (≈ 0.352 µM)	16	13	CCNC(=O)c1ncnn1[C@@H]1C[C@@]23COC[C@@](C)([C@@H]2CC[C@H]2C3=CC[C@@]3(C)[C@H](C(=O)O)[C@@](C)([C@H](C)C(C)C)CC[C@]23C)[C@H]1OC[C@](C)(N)C(C)C	< 0.03	-2.8	-0.8	-1.4
> 1000	16 (≈ 24.1 µM)	> 32		CC(C)[C@@H](C)[C@@]1(C)CC[C@]2(C)[C@H]3CC[C@@H]4[C@@]5(COC[C@]4(C)[C@@H](OC[C@](C)(N)C(C)C)[C@H](n4cnnc4C#N)C5)C3=CC[C@@]2(C)[C@@H]1C(=O)O	8			
10	0.25 (≈ 0.345 µM)	16	10	CC(C)NC(=O)c1ncnn1[C@@H]1C[C@@]23COC[C@@](C)([C@@H]2CC[C@H]2C3=CC[C@@]3(C)[C@H](C(=O)O)[C@@](C)([C@H](C)C(C)C)CC[C@]23C)[C@H]1OC[C@](C)(N)C(C)C	< 0.03	-2.3	-0.4	-1.8
2	0.5 (≈ 0.697 µM)	8	33	CC(C)[C@@H](C)[C@@]1(C)CC[C@]2(C)[C@H]3CC[C@@H]4[C@@]5(COC[C@]4(C)[C@@H](OC[C@](C)(N)C(C)C)[C@H](n4ncnc4Br)C5)C3=CC[C@@]2(C)[C@@H]1C(=O)O	< 0.03	-2.3	-0.2	-1.7
5	< 0.03	2	7	CC(C)[C@@H](C)[C@@]1(C)CC[C@]2(C)[C@H]3CC[C@@H]4[C@@]5(COC[C@]4(C)[C@@H](OC[C@](C)(N)C(C)C)[C@H](n4ncnc4C(N)=O)C5)C3=CC[C@@]2(C)[C@@H]1C(=O)O	< 0.03	-2.5	-0.9	-0.2
3	0.06 (≈ 0.0891 µM)	8	9	CC(C)[C@@H](C)[C@@]1(C)CC[C@]2(C)[C@H]3CC[C@@H]4[C@@]5(COC[C@]4(C)[C@@H](OC[C@](C)(N)C(C)C)[C@H](n4ncnc4Cl)C5)C3=CC[C@@]2(C)[C@@H]1C(=O)O	< 0.03	-1.9	-1.2	-2.2
10	0.06 (≈ 0.0865 µM)	16		CC(C)[C@@H](C)[C@@]1(C)CC[C@]2(C)[C@H]3CC[C@@H]4[C@@]5(COC[C@]4(C)[C@@H](OCC4(N)CCCCC4)[C@H](n4ncnc4C(N)=O)C5)C3=CC[C@@]2(C)[C@@H]1C(=O)O	< 0.03	-1.8	-0.5	-1.8
5	1 (≈ 1.37 µM)	8		CCS(=O)(=O)c1ncnn1[C@@H]1C[C@@]23COC[C@@](C)([C@@H]2CC[C@H]2C3=CC[C@@]3(C)[C@H](C(=O)O)[C@@](C)([C@H](C)C(C)C)CC[C@]23C)[C@H]1OC[C@](C)(N)C(C)C	< 0.03			

Continued, molecule first:

SMILES	IC50 [1] [ng/mL]	MIC (Candida albicans [2]) [µg/mL]	MIC (Candida albicans [3]) [µg/mL]	bioavailability [7] [%]	minimal effective concentration (Aspergillus fumigatus) [µg/mL]	Activity (Candida albicans [4]) [log CFU]	Activity (Candida albicans [5]) [log CFU]	Activity (Candida albicans [6]) [log CFU]
COC(=O)c1ncnn1[C@@H]1C[C@@]23COC[C@@](C)([C@@H]2CC[C@H]2C3=CC[C@@]3(C)[C@H](C(=O)O)[C@@](C)([C@H](C)C(C)C)CC[C@]23C)[C@H]1OC[C@](C)(N)C(C)C	4	1 (≈ 1.43 µM)	32		0.125			
CC(C)[C@@H](C)[C@@]1(C)CC[C@]2(C)[C@H]3CC[C@@H]4[C@@]5(COC[C@]4(C)[C@@H](OC[C@](C)(N)C(C)C)[C@H](n4ncnc4C(=O)N(C)C)C5)C3=CC[C@@]2(C)[C@@H]1C(=O)O	9	0.25 (≈ 0.352 µM)	8	16	< 0.03	-2.4	-1	-1.3
CC(C)[C@@H](C)[C@@]1(C)CC[C@]2(C)[C@H]3CC[C@@H]4[C@@]5(COC[C@]4(C)[C@@H](OC[C@](C)(N)C(C)C)[C@H](n4cncn4)C5)C3=CC[C@@]2(C)[C@@H]1C(=O)O	7	0.25 (≈ 0.391 µM)	4		< 0.03			
CC(C)[C@@H](C)[C@@]1(C)CC[C@]2(C)[C@H]3CC[C@@H]4[C@@]5(COC[C@]4(C)[C@@H](OC[C@](C)(N)C(C)C)[C@H](n4cnc(Cl)n4)C5)C3=CC[C@@]2(C)[C@@H]1C(=O)O	19	8 (≈ 11.9 µM)	> 32		0.25			
CC(C)[C@@H](C)[C@@]1(C)CC[C@]2(C)[C@H]3CC[C@@H]4[C@@]5(COC[C@]4(C)[C@@H](OC[C@](C)(N)C(C)C)[C@H](n4ncnc4C#N)C5)C3=CC[C@@]2(C)[C@@H]1C(=O)O	6	0.125 (≈ 0.188 µM)	8		< 0.03	-1.1	-0.9	0
CCCNC(=O)c1ncnn1[C@@H]1C[C@@]23COC[C@@](C)([C@@H]2CC[C@H]2C3=CC[C@@]3(C)[C@H](C(=O)O)[C@@](C)([C@H](C)C(C)C)CC[C@]23C)[C@H]1OC[C@](C)(N)C(C)C	7	0.5 (≈ 0.691 µM)	16	33	< 0.03	-2.2	-1.1	-1.6
CC(C)[C@@H](C)[C@@]1(C)CC[C@]2(C)[C@H]3CC[C@@H]4[C@@]5(COC[C@]4(C)[C@@H](OC[C@](C)(N)C(C)C)[C@H](n4ncnc4N)C5)C3=CC[C@@]2(C)[C@@H]1C(=O)O	10	0.25 (≈ 0.382 µM)	16		0.125			
CC(C)[C@@H](C)[C@@]1(C)CC[C@]2(C)[C@H]3CC[C@@H]4[C@@]5(COC[C@]4(C)[C@@H](OC[C@](C)(N)C(C)C)[C@H](n4ncnc4C(=O)NC4CC4)C5)C3=CC[C@@]2(C)[C@@H]1C(=O)O	5	0.25 (≈ 0.346 µM)	16	30	< 0.03	-2.1	-0.8	-0.9
CNC(=O)c1ncnn1[C@@H]1C[C@@]23COC[C@@](C)([C@@H]2CC[C@H]2C3=CC[C@@]3(C)[C@H](C(=O)O)[C@@](C)([C@H](C)C(C)C)CC[C@]23C)[C@H]1OC[C@](C)(N)C(C)C	4	0.125 (≈ 0.18 µM)	8	5	< 0.03	-2.6	-0.6	-1.6
CCSc1ncnn1[C@@H]1C[C@@]23COC[C@@](C)([C@@H]2CC[C@H]2C3=CC[C@@]3(C)[C@H](C(=O)O)[C@@](C)([C@H](C)C(C)C)CC[C@]23C)[C@H]1OC[C@](C)(N)C(C)C	9	0.5 (≈ 0.715 µM)	32		< 0.03			
CC(C)[C@@H](C)[C@@]1(C)CC[C@]2(C)[C@H]3CC[C@@H]4[C@@]5(COC[C@]4(C)[C@@H](OC[C@](C)(N)C(C)C)[C@H](n4cnnc4Cl)C5)C3=CC[C@@]2(C)[C@@H]1C(=O)O	> 1000	32 (≈ 47.5 µM)	> 32		16			
